Like-named read-outs stand apart in the source and are kept apart here.
Target: T1, wild-type mouse TMEM16A (Mus musculus, UniProt Q8BHY3)
T1 construct: expressed in transfected cells; host or cells: HEK293T
T1 sequence (Q8BHY3 1-960): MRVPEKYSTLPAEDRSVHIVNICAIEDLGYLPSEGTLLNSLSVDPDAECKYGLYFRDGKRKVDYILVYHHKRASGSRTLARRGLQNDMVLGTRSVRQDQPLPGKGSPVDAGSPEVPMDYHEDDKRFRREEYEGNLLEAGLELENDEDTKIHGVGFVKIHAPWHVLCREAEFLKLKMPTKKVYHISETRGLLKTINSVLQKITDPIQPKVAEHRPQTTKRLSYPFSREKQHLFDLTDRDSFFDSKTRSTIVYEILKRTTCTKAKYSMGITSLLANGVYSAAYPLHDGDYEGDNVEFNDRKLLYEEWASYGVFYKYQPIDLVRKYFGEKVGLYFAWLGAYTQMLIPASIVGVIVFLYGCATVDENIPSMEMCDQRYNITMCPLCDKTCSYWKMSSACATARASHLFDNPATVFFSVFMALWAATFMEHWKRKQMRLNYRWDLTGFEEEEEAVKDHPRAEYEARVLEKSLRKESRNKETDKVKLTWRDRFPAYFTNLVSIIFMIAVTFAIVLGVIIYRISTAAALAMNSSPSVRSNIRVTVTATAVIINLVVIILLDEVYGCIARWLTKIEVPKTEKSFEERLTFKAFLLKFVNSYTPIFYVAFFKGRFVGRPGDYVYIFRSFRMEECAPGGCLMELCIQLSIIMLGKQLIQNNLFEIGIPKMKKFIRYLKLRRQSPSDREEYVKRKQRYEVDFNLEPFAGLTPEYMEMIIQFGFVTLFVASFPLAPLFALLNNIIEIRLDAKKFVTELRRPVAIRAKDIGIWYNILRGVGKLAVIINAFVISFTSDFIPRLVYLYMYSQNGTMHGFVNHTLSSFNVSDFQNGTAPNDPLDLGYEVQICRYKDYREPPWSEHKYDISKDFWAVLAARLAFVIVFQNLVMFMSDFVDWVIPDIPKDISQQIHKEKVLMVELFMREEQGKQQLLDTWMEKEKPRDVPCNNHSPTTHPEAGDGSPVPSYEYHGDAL
Test: Inside-out patch recording of 1PBC block, wild-type TMEM16A
Type: cell-based
Details: for remaining activity at 100 µM: read-out: I/Imax
Experimental: HEK293T cells (ATCC CRL-1573) were maintained in Dulbecco’s modified Eagle’s medium (DMEM; Sigma-Aldrich) supplemented with 10 U ml^−1 penicillin, 0.1 mg ml^−1 streptomycin (Sigma-Aldrich), 2 mM L-glutamine (Sigma-Aldrich), and 10% FBS (Sigma-Aldrich) in a humidified atmosphere containing 5% CO2 at 37 °C. HEK293S GnTI^− cells (ATCC CRL-3022) were maintained in HyClone HyCell TransFx-H medium (GE Healthcare) supplemented with 10 U ml^−1 penicillin, 0.1 mg ml^−1 streptomycin, 4 mM L-glutamine, 0.15% poloxamer 188 (Sigma-Aldrich), and 1% FBS in an atmosphere containing 5% CO2 at 185 rpm at 37 °C. The ac splice variant of mouse TMEM16A (UniProt ID: Q8BHY3), mouse TMEM16B (UniProt ID: Q8CFW1), or mouse TMEM16F (UniProt ID: Q6P9J9) bearing a 3C cleavage site, a Venus YFP, a Myc tag, and a Streptavidin-binding peptide (SBP) downstream of the open reading frame in a modified pcDNA3.1 vector (Invitrogen) were used as described previously[21],[31]. Mutations were introduced using a modified QuikChange method[58] and were verified by sequencing.
HEK293T cells were transfected with 3–4 μg DNA per 6 cm Petri dish using the calcium phosphate co-precipitation method and were used within 24–96 h after transfection. Recordings were performed on inside-out patches excised from HEK293T cells expressing the construct of interest. Patch pipettes were pulled from borosilicate glass capillaries (O.D. 1.5 mm, I.D. 0.86 mm, Sutter Instrument) and were fire-polished with a microforge (Narishige) before use. Pipette resistance was typically 3–8 MΩ when filled with the recording solutions detailed below. Seal resistance was typically 4 GΩ or higher. Voltage-clamp recordings were made using Axopatch 200B, Digidata 1550, and Clampex 10.7 (Molecular Devices). Analog signals were filtered with the in-built 4-pole Bessel filter at 10 kHz and were digitized at 20 kHz. Solution exchange was achieved using a gravity-fed system through a theta glass pipette mounted on an ultra-fast piezo-driven stepper (Siskiyou). […] All recordings were performed at 20 °C.
A symmetrical ionic condition was used throughout. Stock solution with Ca^2+-EGTA contained 150 mM NaCl, 5.99 mM Ca(OH)2, 5 mM EGTA, and 10 mM HEPES at pH 7.40. Stock solution with EGTA contained 150 mM NaCl, 5 mM EGTA, and 10 mM HEPES at pH 7.40. Free Ca^2+ concentrations were adjusted by mixing the stock solutions at the required ratios calculated using the WEBMAXC program (http://web.stanford.edu/~cpatton/webmaxcS.htm). Patch pipettes were filled with the stock solution with Ca^2+-EGTA, which has a free Ca^2+ concentration of 1 mM. 1PBC (ChemBridge) stock was reconstituted in anhydrous DMSO (Sigma-Aldrich) at 100 mM and stored at −20 °C. Working solutions with 1PBC were prepared by serial dilution. Unless otherwise stated, experiments were performed at a saturating Ca^2+ concentration as shown in Supplementary Table 1 and the primary data were corrected for current rundown as described previously[21],[25].
Concentration-response relations, obtained from the ratio of the I-V plots before and after the application of the blocker, were fitted to the Hill equation,1 I/Imax=1/1+IC50/[blocker]^h where I/Imax is the normalized current responses, IC50 defines the concentration at which inhibition is at its half-maximum, and h is the Hill coefficient.

[1] = 100 µM 1PBC, -100 mV, 2 µM Ca2+
[2] = 100 µM 1PBC, -120 mV, 2 µM Ca2+
[3] = 100 µM 1PBC, -140 mV, 2 µM Ca2+

- I/Imax scaled to open probability (100 µM 1PBC, 2 µM Ca2+, 80 mV): 0.02162
- Steady-state current (normalized) (100 µM 1PBC, 20 mV, 2 µM Ca2+): 0.006925
- remaining activity at 100 µM (100 µM 1PBC, 20 mV, 2 µM Ca2+): 3.56%
- Steady-state current (normalized) (100 µM 1PBC, 40 mV, 2 µM Ca2+): 0.0112
- remaining activity at 100 µM (100 µM 1PBC, 40 mV, 2 µM Ca2+): 2.97%
- Steady-state current (normalized) (100 µM 1PBC, 60 mV, 2 µM Ca2+): 0.0148
- remaining activity at 100 µM (100 µM 1PBC, 60 mV, 2 µM Ca2+): 2.68%
- Steady-state current (normalized) (100 µM 1PBC, 80 mV, 2 µM Ca2+): 0.01763
- remaining activity at 100 µM (100 µM 1PBC, 80 mV, 2 µM Ca2+): 2.49%
- Steady-state current (normalized) (100 µM 1PBC, 100 mV, 2 µM Ca2+): 0.02038
- remaining activity at 100 µM (100 µM 1PBC, 100 mV, 2 µM Ca2+): 2.4%
- Steady-state current (normalized) (100 µM 1PBC, 120 mV, 2 µM Ca2+): 0.024
- remaining activity at 100 µM (100 µM 1PBC, 120 mV, 2 µM Ca2+): 2.47%
- Steady-state current (normalized) (100 µM 1PBC, 140 mV, 2 µM Ca2+): 0.02832
- remaining activity at 100 µM (100 µM 1PBC, 140 mV, 2 µM Ca2+): 2.6%
- Steady-state current (normalized) (100 µM 1PBC, -20 mV, 2 µM Ca2+): -0.01026
- remaining activity at 100 µM (100 µM 1PBC, -20 mV, 2 µM Ca2+): 5.33%
- Steady-state current (normalized) (100 µM 1PBC, -40 mV, 2 µM Ca2+): -0.02602
- remaining activity at 100 µM (100 µM 1PBC, -40 mV, 2 µM Ca2+): 6.7%
- Steady-state current (normalized) (100 µM 1PBC, -60 mV, 2 µM Ca2+): -0.04778
- remaining activity at 100 µM (100 µM 1PBC, -60 mV, 2 µM Ca2+): 8.25%
- Steady-state current (normalized) (100 µM 1PBC, -80 mV, 2 µM Ca2+): -0.07707
- remaining activity at 100 µM (100 µM 1PBC, -80 mV, 2 µM Ca2+): 10%
- Steady-state current (normalized) [1]: -0.1118
- remaining activity at 100 µM [1]: 11.8%
- Steady-state current (normalized) [2]: -0.1551
- remaining activity at 100 µM [2]: 13.9%
- Steady-state current (normalized) [3]: -0.2042
- remaining activity at 100 µM [3]: 15.9%
- IC50 (20 mV, 2 µM Ca2+): 3.42 µM
- IC50 (40 mV, 2 µM Ca2+): 2.77 µM
- IC50 (60 mV, 2 µM Ca2+): 2.32 µM
- IC50 (80 mV, 2 µM Ca2+): 2.06 µM
- IC50 (100 mV, 2 µM Ca2+): 2 µM
- IC50 (120 mV, 2 µM Ca2+): 2.1 µM
- IC50 (140 mV, 2 µM Ca2+): 2.41 µM
- IC50 (-20 mV, 2 µM Ca2+): 5.63 µM
- IC50 (-40 mV, 2 µM Ca2+): 7.34 µM
- IC50 (-60 mV, 2 µM Ca2+): 9.2 µM
- IC50 (-80 mV, 2 µM Ca2+): 11.6 µM
- IC50 (-100 mV, 2 µM Ca2+): 14.1 µM
- IC50 (-120 mV, 2 µM Ca2+): 17.2 µM
- IC50 (-140 mV, 2 µM Ca2+): 19.9 µM
- Electrical distance of 1PBC block (functional experiments): 0.2-0.25
- Membrane permeability (neutral pH, implied from block from the extracellular side after intracellular application): freely membrane-permeable
- IC50 (zero mV, saturating Ca2+ concentration (2 µM), applied from the intracellular side): ~4 µM
Compound: N#Cc1c(C(F)(F)F)cc(O)n2c1nc1ccccc12 [1PBC]
- Selectivity for anion channels of the TMEM16 family over the scramblase TMEM16F (TMEM16A and TMEM16B blocked, TMEM16F current not): selective for anion channels of the TMEM16 family over the scramblase TMEM16F

Reference: PMC9120017, “Inhibition mechanism of the chloride channel TMEM16A by the pore blocker 1PBC” (Nature Communications, 2022)
